Where two headings read alike, the source gives them in different places.
Assays:
Format in all cases: in vivo
[1] = system: wheat (Triticum aestivum); test: Test A pre-/postemergence plant response; conditions: Triticum aestivum, 240 h, read-out: Plant response rating, Wheat; for plant injury at 31 g/ha: 31 g ai/ha; for plant injury at 125 g/ha: 125 g ai/ha
In short: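 Soil: loam blended with sand. Formulation: non-phytotoxic solvent mixture plus surfactant, applied as preemergence directed soil spray and as postemergence spray. Scoring: visual, 0 no effect to 100 complete control, roughly 10 days post-treatment in greenhouse.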

[2] = system: Italian ryegrass (Lolium multiflorum); test: Test B pre-/postemergence plant response; conditions: for pest or weed control at 31 g/ha / pest or weed control at 62 g/ha: Lolium multiflorum, read-out: Plant response rating, Ryegrass, Italian; for pest or weed control at 31 g/ha: 31 g ai/ha; for pest or weed control at 62 g/ha: 62 g ai/ha, 100 complete control
Source text: (§1) Seeds of plant species selected from blackgrass (Alopecurus myosuroides), downy bromegrass (Bromus tectorum), green foxtail (Setaria viridis), Italian ryegrass (Lolium multiflorum), wheat (Triticum aestivum), wild oat (Avena fatua), catchweed bedstraw (Galium aparine), bermudagrass (Cynodon dactylon), surinam grass (Brachiaria decumbens), cocklebur (Xanthium strumarium), corn (Zea mays), large crabgrass (Digitaria sanguinalis), woolly cupgrass (Eriochloa villosa), giant foxtail (Setaria faberii), goosegrass (Eleusine indica), johnsongrass (Sorghum halepense), kochia (Kochia scoparia), lambsquarters (Chenopodium album), morningglory (Ipomoea coccinea), eastern black (E.B.) nightshade (Solanum ptycanthum), yellow nutsedge (Cyperus esculentus), pigweed (Amaranthus retroflexus), common ragweed (Ambrosia elation), Russian thistle (Salsola iberica), soybean (Glycine max), common (oilseed) sunflower (Helianthus annuus), and velvetleaf (Abutilon theophrasti) were planted and treated preemergence with test chemicals formulated in a non-phytotoxic solvent mixture which included a surfactant.
(§2) At the same time, plants selected from these crop and weed species and also winter barley (Hordeum vulgare), canarygrass (Phalaris minor), chickweed (Stellaria media) and windgrass (Apera spica-venti) were treated with postemergence applications of some of the test chemicals formulated in the same manner. Plants ranged in height from 2 to 18 cm (1- to 4-leaf stage) for postemergence treatments.
(§3) Plant species in the flooded paddy test consisted of rice (Oryza sativa), umbrella sedge (Cyperus difformis), ducksalad (Heteranthera limosa) and barnyardgrass (Echinochloa crus-galli) grown to the 2-leaf stage for testing. At time of treatment, test pots were flooded to 3 cm above the soil surface, treated by application of test compounds directly to the paddy water, and then maintained at that water depth for the duration of the test. Treated plants and controls were maintained in a greenhouse for 13 to 15 days, after which time all species were compared to controls and visually evaluated. Plant response ratings, summarized in Table B, are based on a scale of 0 to 100 where 0 is no effect and 100 is complete control. A dash (-) response means no test result.

[3] = system: Russian thistle (Salsola iberica); test: Test B pre-/postemergence plant response; conditions: Preemergence
Source text: as §1, §2, §3

[4] = system: cocklebur (Xanthium strumarium); test: Test B pre-/postemergence plant response; conditions: for pest or weed control at 31 g/ha: 31 g ai/ha; for pest or weed control at 62 g/ha: 62 g ai/ha, 100 complete control
Source text: as §1, §2, §3

[5] = system: common ragweed (Ambrosia elation); test: Test B pre-/postemergence plant response; conditions: for pest or weed control at 31 g/ha / pest or weed control at 62 g/ha: Ambrosia, read-out: Plant response rating, Ragweed; for pest or weed control at 31 g/ha: 31 g ai/ha; for pest or weed control at 62 g/ha: 62 g ai/ha, 100 complete control
Source text: as §1, §2, §3

[6] = system: eastern black (E.B.) nightshade (Solanum ptycanthum); test: Test B pre-/postemergence plant response; conditions: Preemergence
Source text: as §1, §2, §3

[7] = system: goosegrass (Eleusine indica); test: Test B pre-/postemergence plant response; conditions: for pest or weed control at 31 g/ha / pest or weed control at 62 g/ha: Eleusine indica, read-out: Plant response rating, Goosegrass; for pest or weed control at 31 g/ha: 31 g ai/ha; for pest or weed control at 62 g/ha: 62 g ai/ha, 100 complete control
Source text: as §1, §2, §3

[8] = system: pigweed (Amaranthus retroflexus); test: Test B pre-/postemergence plant response; conditions: for pest or weed control at 31 g/ha / pest or weed control at 62 g/ha: Amaranthus retroflexus, read-out: Plant response rating, Pigweed; for pest or weed control at 31 g/ha: 31 g ai/ha; for pest or weed control at 62 g/ha: 62 g ai/ha, 100 complete control
Source text: as §1, §2, §3

[9] = system: soybean (Glycine max); test: Test B pre-/postemergence plant response; conditions: for plant injury at 31 g/ha / plant injury at 62 g/ha: Glycine max, read-out: Plant response rating, Soybean; for plant injury at 31 g/ha: 31 g ai/ha; for plant injury at 62 g/ha: 62 g ai/ha, 100 complete control
Source text: as §1, §2, §3

[10] = system: woolly cupgrass (Eriochloa villosa); test: Test B pre-/postemergence plant response; conditions: for pest or weed control at 31 g/ha: 31 g ai/ha; for pest or weed control at 62 g/ha: 62 g ai/ha, 100 complete control
Source text: as §1, §2, §3

[11] = system: yellow nutsedge (Cyperus esculentus); test: Test B pre-/postemergence plant response; conditions: for pest or weed control at 31 g/ha / pest or weed control at 62 g/ha: Cyperus, read-out: Plant response rating, Nutsedge, Yellow; for pest or weed control at 31 g/ha: 31 g ai/ha; for pest or weed control at 62 g/ha: 62 g ai/ha, 100 complete control
Source text: as §1, §2, §3

[12] = 8 g ai/ha, postemergence, 0-100 scale
[13] = 16 g ai/ha, postemergence, 0-100 scale
[14] = post-emergence, Postemergence, scale 0 to 100
[15] = post-emergence, Postemergence, scale 0 to 100, 0 no effect
[16] = pre-emergence, Preemergence, scale 0 to 100 (0 no effect, 100 complete control)
[17] = pre-emergence, Preemergence, 0 to 100 scale, 0 no effect
[18] = Preemergence, 8 g ai/ha, scale 0 to 100 (0 no effect, 100 complete control)
[19] = Preemergence, 16 g ai/ha, scale 0 to 100
[20] = 8 g ai/ha, scale 0 to 100 (0 no effect, 100 complete control)

Cc1cc(-c2ccc(Br)cc2)nn1-c1c(O)cn[nH]c1=O [Compound 78, 4-[3-(4-bromophenyl)-5-methyl-1H-pyrazol-1-yl]-5-hydroxy-3(2H)-pyridazinone] was tested, and the plant injury at 31 g/ha ([1]; post-emergence, Postemergence, 0 to 100 scale (0 no effect, 100 complete control)) was 70%, the plant injury at 125 g/ha ([1]; post-emergence, Postemergence, 0 to 100 scale, 0 no effect, 100 complete control) was 90% and the plant injury at 31 g/ha ([1]; pre-emergence, Preemergence, 0 to 100 scale, 0 is no effect, 100 is complete control) was 0%. The plant injury at 125 g/ha ([1]; pre-emergence, Preemergence, 0 to 100 scale (0 no effect, 100 complete control)) was 90%, the “Ryegrass, Italian plant response rating” value [2, 12] was 90 and the “Ryegrass, Italian plant response rating” value [2, 13] was 98. The pest or weed control at 31 g/ha [2, 14] was 100%, the pest or weed control at 62 g/ha [2, 15] was 100% and the pest or weed control at 31 g/ha [2, 16] was 100%. The pest or weed control at 62 g/ha [2, 17] was 100%, the “Ryegrass, Italian plant response rating” value [2, 18] was 98 and the “Ryegrass, Italian plant response rating” value [2, 19] was 98. The “Russian Thistle plant response rating” value [3, 20] was 0, the “Plant response rating, Russian Thistle” value ([3]; 31 g ai/ha, scale 0 to 100 (0 no effect, 100 complete control)) was 0 and the “Plant response rating, Russian Thistle” value ([3]; 62 g ai/ha, 0 to 100 scale, 0 no effect, 100 complete control) was 0. The “Russian Thistle plant response rating” value ([3]; 16 g ai/ha, scale 0 to 100) was 0, the “Cocklebur plant response rating” value [4, 12] was 0 and the “Cocklebur plant response rating” value [4, 18] was 0. The “Cocklebur plant response rating” value [4, 19] was 0, the pest or weed control at 16 g/ha ([4]; Xanthium strumarium, post-emergence, Postemergence, 16 g ai/ha, scale 0 to 100, read-out: Plant response rating, Cocklebur) was 0% and the pest or weed control at 31 g/ha ([4]; Xanthium strumarium, post-emergence, Postemergence, scale 0 to 100, read-out: Plant response rating, Cocklebur) was 0%. The pest or weed control at 62 g/ha ([4]; Xanthium strumarium, post-emergence, Postemergence, scale 0 to 100, 0 no effect, read-out: Plant response rating, Cocklebur) was 0%, the pest or weed control at 31 g/ha ([4]; Xanthium strumarium, pre-emergence, Preemergence, scale 0 to 100 (0 no effect, 100 complete control), read-out: Plant response rating, Cocklebur) was 0% and the pest or weed control at 62 g/ha ([4]; Xanthium strumarium, pre-emergence, Preemergence, 0 to 100 scale, 0 no effect, read-out: Plant response rating, Cocklebur) was 0%. The “Ragweed plant response rating” value [5, 12] was 0, the “Ragweed plant response rating” value [5, 13] was 0 and the pest or weed control at 31 g/ha [5, 14] was 0%. For the same molecule, the pest or weed control at 62 g/ha [5, 15] was 60%, the pest or weed control at 31 g/ha [5, 16] was 0% and the pest or weed control at 62 g/ha [5, 17] was 0%. For the same molecule, the “Ragweed plant response rating” value [5, 18] was 0, the “Ragweed plant response rating” value [5, 19] was 0 and the “Nightshade, E. B. plant response rating” value [6, 20] was 0. For the same molecule, the “Nightshade, E. B. plant response rating” value ([6]; 16 g ai/ha, scale 0 to 100) was 0, the pest or weed control at 31 g/ha ([6]; Solanum, pre-emergence, 31 g ai/ha, scale 0 to 100 (0 no effect, 100 complete control), read-out: Plant response rating, Nightshade, E. B.) was 0% and the pest or weed control at 62 g/ha ([6]; Solanum, pre-emergence, 62 g ai/ha, 0 to 100 scale, 0 no effect, 100 complete control, read-out: Plant response rating, Nightshade, E. B.) was 55%. The “Goosegrass plant response rating” value [7, 12] was 70, the “Goosegrass plant response rating” value [7, 13] was 85 and the pest or weed control at 31 g/ha [7, 14] was 90%. It also gave a pest or weed control at 62 g/ha [7, 15] of 100%, a pest or weed control at 31 g/ha [7, 16] of 100% and a pest or weed control at 62 g/ha [7, 17] of 100%. The “Goosegrass plant response rating” value [7, 18] was 85, the “Goosegrass plant response rating” value [7, 19] was 100 and the “Pigweed plant response rating” value [8, 12] was 0. For the same molecule, the “Pigweed plant response rating” value [8, 13] was 0, the pest or weed control at 31 g/ha [8, 14] was 0% and the pest or weed control at 62 g/ha [8, 15] was 0%. For the same molecule, the pest or weed control at 31 g/ha [8, 16] was 0%, the pest or weed control at 62 g/ha [8, 17] was 0% and the “Pigweed plant response rating” value [8, 18] was 0. The “Pigweed plant response rating” value [8, 19] was 0, the “Soybean plant response rating” value [9, 12] was 0 and the “Soybean plant response rating” value [9, 13] was 15. For the same molecule, the plant injury at 31 g/ha [9, 14] was 20%, the plant injury at 62 g/ha [9, 15] was 25% and the plant injury at 31 g/ha [9, 16] was 0%. For the same molecule, the plant injury at 62 g/ha [9, 17] was 0%, the “Soybean plant response rating” value [9, 18] was 0 and the “Soybean plant response rating” value [9, 19] was 0. The “Cupgrass, Woolly plant response rating” value [10, 12] was 98, the pest or weed control at 16 g/ha ([10]; Eriochloa villosa, post-emergence, Postemergence, 16 g ai/ha, scale 0 to 100, read-out: Plant response rating, Cupgrass, Woolly) was 100% and the pest or weed control at 31 g/ha ([10]; Eriochloa villosa, post-emergence, Postemergence, scale 0 to 100, read-out: Plant response rating, Cupgrass, Woolly) was 100%. For the same molecule, the pest or weed control at 62 g/ha ([10]; Eriochloa villosa, post-emergence, Postemergence, scale 0 to 100, 0 no effect, read-out: Plant response rating, Cupgrass, Woolly) was 100%, the pest or weed control at 31 g/ha ([10]; Eriochloa villosa, pre-emergence, Preemergence, scale 0 to 100 (0 no effect, 100 complete control), read-out: Plant response rating, Cupgrass, Woolly) was 100% and the pest or weed control at 62 g/ha ([10]; Eriochloa villosa, pre-emergence, Preemergence, 0 to 100 scale, 0 no effect, read-out: Plant response rating, Cupgrass, Woolly) was 100%. The “Cupgrass, Woolly plant response rating” value [10, 18] was 65, the “Cupgrass, Woolly plant response rating” value [10, 19] was 98 and the “Nutsedge, Yellow plant response rating” value [11, 12] was 0. For the same molecule, the “Nutsedge, Yellow plant response rating” value [11, 13] was 0, the pest or weed control at 31 g/ha [11, 14] was 0% and the pest or weed control at 62 g/ha [11, 15] was 0%. For the same molecule, the pest or weed control at 31 g/ha [11, 16] was 0%, the pest or weed control at 62 g/ha [11, 17] was 0% and the “Nutsedge, Yellow plant response rating” value [11, 18] was 0. For the same molecule, the “Nutsedge, Yellow plant response rating” value [11, 19] was 0.

— patent publication US20100267561A1, “HERBICIDAL PYRIDAZINONE DERIVATIVES” (priority 2007, published 2010)
